Values after ≈ are worked out from the molar mass of the structure shown. Some results are limits rather than exact numbers.

In data set [1] the test system is Spodoptera littoralis. As to the kind of experiment: Toxicity in Spodoptera littoralis neonatal larvae assessed as survival rate after 5 days. The data set is classed as organism-based. To be noted: in vivo, 120 h.
The subject of data set [2] is Spodoptera littoralis. As to the kind of experiment: Toxicity in Spodoptera littoralis neonatal larvae assessed as growth inhibition after 5 days. It counts as organism-based.
In data set [3] the test system is Spodoptera littoralis. Nature of the data set: Contact toxicity in Spodoptera littoralis neonatal larvae assessed as mortality after 48 hrs. The data set is classed as organism-based. The note with it: in vivo.
The subject of the next data set is Cladosporium herbarum. Nature of the data set: Antifungal activity against Cladosporium herbarum assessed as inhibition of spore germination after 36 hrs by germtube inhibition test. The data set is classed as functional. To be noted: read-out: ED50 (the source's name).

As for `CSC(=O)N(C)/C=C/c1ccccc1` [DEHYDRONIRANIN A], the LC50 with Spodoptera littoralis [1] worked out at 1.64 µmol/g; with Spodoptera littoralis [3], 0.18 umol/dm'2. Besides, the values for the EC50 in the data set with Spodoptera littoralis [2] and in the data set on Cladosporium herbarum were 0.41 µmol/g and 100 µg/mL (≈ 482 µM), respectively.
For `CSC(=O)N(C)CCc1ccccc1` [NIRANIN], in that order: 0.81 µmol/g, 0.03 umol/dm'2, 0.25 µmol/g and 28 µg/mL (≈ 134 µM).
Take `CSC(=O)N(C)C(=O)Cc1ccccc1` [RITIGALIN]: the LC50 in the data set with Spodoptera littoralis [1] worked out at 1.34 µmol/g; with Spodoptera littoralis [3], 0.05 umol/dm'2. Moreover, the EC50 in the data set on Spodoptera littoralis [2] was 0.43 µmol/g; with Cladosporium herbarum, 156 µg/mL (≈ 699 µM).
For `CS/C=C/C(=O)N(C)CCc1ccccc1`, in that order: 4.24 µmol/g, 0.03 umol/dm'2, 0.47 µmol/g and 17.6 µg/mL (≈ 74.8 µM).
Take `CSC(=O)N(C)/C=C\c1ccccc1` [DEHYDRONIRANIN B]: the values for the LC50 with Spodoptera littoralis [1] and in the data set on Spodoptera littoralis [3] were 0.96 µmol/g and 0.02 umol/dm'2, respectively. The EC50 in the data set on Spodoptera littoralis [2] was 0.37 µmol/g; with Cladosporium herbarum it was 8.4 µg/mL (≈ 40.5 µM).
The like results for `CNC(=O)/C=C/SC` [PENANGIN] were, in that order, above 10 µmol/g, 2.84 umol/dm'2, 0.84 µmol/g and above 200 µg/mL.
The like results for `CS/C=C/C(=O)N(C)/C=C/c1ccccc1` [METHYLILLUKUMBIN A] were, in that order, above 5 µmol/g, above 6.5 umol/dm'2, 0.94 µmol/g and 5.5 µg/mL (≈ 23.6 µM).

The record behind these values is ChEMBL document CHEMBL1158289, “Bioactive amides from Glycosmis species” (J Nat Prod, 1996).
